Data as given in ChEMBL document CHEMBL1157666, “Design, synthesis and biological evaluation of thiazolidinone derivatives as potential EGFR and HER-2 kinase inhibitors” (Bioorg Med Chem, 2010).

Tests used:
MCF7 = experiment: cells; settings: Homo sapiens, MCF7, 48 h
[1] = target: Epidermal growth factor receptor (Homo sapiens, UniProt P00533); experiment: biochemical
Description: Inhibition of cloned EGFR autophosphorylation expressed in baculovirus-infected Sf9 cells by solid-phase ELISA

[2] = target: T1, Receptor tyrosine-protein kinase erbB-2 (Homo sapiens, UniProt P04626); experiment: biochemical
Description: (§1) Inhibition of human cloned HER2 autophosphorylation expressed in baculovirus-infected Sf9 cells by solid-phase ELISA

[3] = target: T1, Receptor tyrosine-protein kinase erbB-2
Description: as §1

Epidermal growth factor receptor, sequence (P00533 whole entry): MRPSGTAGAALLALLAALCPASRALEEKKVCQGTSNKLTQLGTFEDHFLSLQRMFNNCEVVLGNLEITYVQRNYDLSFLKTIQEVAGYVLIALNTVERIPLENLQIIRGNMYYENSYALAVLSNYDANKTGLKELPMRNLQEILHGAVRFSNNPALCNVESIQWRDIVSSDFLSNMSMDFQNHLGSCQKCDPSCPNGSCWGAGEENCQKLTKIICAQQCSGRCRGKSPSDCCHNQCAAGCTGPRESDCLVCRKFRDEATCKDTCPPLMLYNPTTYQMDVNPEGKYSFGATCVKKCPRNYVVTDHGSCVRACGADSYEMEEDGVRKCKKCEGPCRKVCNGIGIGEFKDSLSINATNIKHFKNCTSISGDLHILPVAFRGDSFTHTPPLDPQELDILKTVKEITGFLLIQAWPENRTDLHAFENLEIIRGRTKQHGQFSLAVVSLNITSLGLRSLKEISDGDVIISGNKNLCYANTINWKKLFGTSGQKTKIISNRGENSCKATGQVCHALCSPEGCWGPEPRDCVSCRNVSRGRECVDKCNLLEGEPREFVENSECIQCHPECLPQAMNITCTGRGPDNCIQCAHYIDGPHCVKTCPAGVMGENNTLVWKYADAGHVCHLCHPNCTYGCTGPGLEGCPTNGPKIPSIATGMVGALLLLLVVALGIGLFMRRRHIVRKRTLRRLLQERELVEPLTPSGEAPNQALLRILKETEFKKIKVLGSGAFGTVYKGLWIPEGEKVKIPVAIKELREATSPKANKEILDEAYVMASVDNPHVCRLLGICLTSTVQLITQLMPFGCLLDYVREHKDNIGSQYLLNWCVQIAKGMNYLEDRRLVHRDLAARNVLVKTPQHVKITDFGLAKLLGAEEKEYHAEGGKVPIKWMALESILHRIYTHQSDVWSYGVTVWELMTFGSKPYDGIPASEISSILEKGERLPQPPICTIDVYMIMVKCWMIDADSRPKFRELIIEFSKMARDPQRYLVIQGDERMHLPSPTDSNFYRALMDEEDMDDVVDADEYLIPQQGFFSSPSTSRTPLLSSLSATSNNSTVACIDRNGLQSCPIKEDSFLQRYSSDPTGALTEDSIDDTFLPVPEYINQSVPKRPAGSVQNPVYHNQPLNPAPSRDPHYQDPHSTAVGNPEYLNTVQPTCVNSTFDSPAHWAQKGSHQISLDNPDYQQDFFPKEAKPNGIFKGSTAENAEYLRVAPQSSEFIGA
T1 sequence (P04626 whole entry): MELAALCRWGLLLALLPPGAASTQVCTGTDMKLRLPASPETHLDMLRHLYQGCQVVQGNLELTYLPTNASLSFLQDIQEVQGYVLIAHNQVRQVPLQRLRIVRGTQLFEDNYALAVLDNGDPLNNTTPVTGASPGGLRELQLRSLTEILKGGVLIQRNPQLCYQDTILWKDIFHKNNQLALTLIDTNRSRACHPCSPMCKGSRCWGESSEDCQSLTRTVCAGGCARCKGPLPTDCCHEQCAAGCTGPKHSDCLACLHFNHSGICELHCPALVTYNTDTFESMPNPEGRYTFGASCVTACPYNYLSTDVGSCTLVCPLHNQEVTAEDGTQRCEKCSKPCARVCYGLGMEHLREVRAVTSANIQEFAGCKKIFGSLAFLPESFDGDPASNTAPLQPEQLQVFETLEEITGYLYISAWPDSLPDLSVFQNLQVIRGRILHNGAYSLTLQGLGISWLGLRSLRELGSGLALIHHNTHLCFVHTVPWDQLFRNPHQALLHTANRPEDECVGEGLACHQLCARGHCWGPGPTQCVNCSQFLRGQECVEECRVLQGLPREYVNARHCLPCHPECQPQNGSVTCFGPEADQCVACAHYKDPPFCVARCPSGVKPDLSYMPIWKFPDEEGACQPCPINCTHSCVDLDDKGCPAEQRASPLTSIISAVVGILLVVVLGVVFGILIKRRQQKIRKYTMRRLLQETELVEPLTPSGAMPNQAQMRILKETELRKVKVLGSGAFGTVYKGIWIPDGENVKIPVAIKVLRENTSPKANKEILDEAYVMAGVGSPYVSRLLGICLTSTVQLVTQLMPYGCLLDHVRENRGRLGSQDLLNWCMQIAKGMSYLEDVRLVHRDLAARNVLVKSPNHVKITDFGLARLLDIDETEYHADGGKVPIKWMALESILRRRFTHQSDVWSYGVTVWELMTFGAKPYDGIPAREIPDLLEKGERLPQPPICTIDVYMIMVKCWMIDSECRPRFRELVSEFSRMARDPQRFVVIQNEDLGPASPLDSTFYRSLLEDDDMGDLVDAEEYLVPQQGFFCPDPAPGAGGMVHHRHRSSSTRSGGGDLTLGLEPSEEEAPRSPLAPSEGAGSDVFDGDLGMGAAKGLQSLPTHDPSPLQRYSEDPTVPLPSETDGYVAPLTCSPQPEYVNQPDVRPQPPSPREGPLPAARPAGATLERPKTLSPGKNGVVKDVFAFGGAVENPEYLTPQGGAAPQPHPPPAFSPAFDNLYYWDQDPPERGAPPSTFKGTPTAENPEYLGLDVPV

Compound | IC50 (MCF7) [µM] | IC50 [1] [µM] | IC50 [2] [µM] | IC50 [3] [µM]
O=C1CSC(NN=C2CCCCCC2)=N1 | 27.6 | 36 | 47 | 
Cc1cccc(/C=N/NC2=NC(=O)CS2)c1 | 8.19 | 23.5 | 31.8 | 
O=C1CSC(N/N=C/c2cccc(F)c2)=N1 | 7.78 | 13.5 | 21.7 | 
O=C1CSC(NN=C2CCCC2)=N1 | 38.5 | > 50 | > 50 | 
O=C1CSC(N/N=C/c2cccc([N+](=O)[O-])c2)=N1 | 12.6 | 26.6 | 37.6 | 
O=C1CSC(N/N=C/c2cccc(O)c2)=N1 | 11.8 | 19.3 | 27.8 | 
O=C1CSC(NN=C2CCC2)=N1 | 46.3 | > 50 | > 50 | 
O=C1CSC(NN=C2CCCCC2)=N1 | 32.1 | 41 | > 50 | 
O=C1CSC(N/N=C/c2cccc(Cl)c2)=N1 | 4.31 | 10.8 | 14.3 | 
COc1cccc(/C=N/NC2=NC(=O)CS2)c1 | 9.73 | 31.2 | 45.5 | 
O=C1CSC(NN=C2CCCCCCC2)=N1 | 18.4 |  | 31 | 

Compounds with a lower IC50 (MCF7), results first:

IC50 (MCF7) [µM] | IC50 [1] [µM] | IC50 [2] [µM] | IC50 [3] [µM] | Compound
3.16 | 5.78 | 9.17 |  | COc1ccc(/C=N/NC2=NC(=O)CS2)cc1
2.77 | 6.82 | 8.46 |  | O=C1CSC(N/N=C/c2ccc([N+](=O)[O-])cc2)=N1
2.42 | 7.46 | 10.3 |  | O=C1CSC(N/N=C/c2cccc(Br)c2)=N1
2.05 |  | 5.83 |  | Cc1ccc(/C=N/NC2=NC(=O)CS2)cc1
1.82 | 1.94 | 2.75 |  | O=C1CSC(N/N=C/c2ccc(Cl)cc2)=N1
1.67 | 4.71 | 6.93 |  | O=C1CSC(N/N=C/c2ccc(O)cc2)=N1
1.58 | 2.18 | 3.89 |  | O=C1CSC(N/N=C/c2ccc(F)cc2)=N1
1.56 | 1.46 | 4.51 |  | O=C1CSC(N/N=C/c2cc(Cl)cc(Cl)c2O)=N1
0.97 | 1.72 | 2.43 |  | O=C1CSC(N/N=C/c2ccc(Br)cc2)=N1
0.62 | 1.24 | 3.73 |  | O=C1CSC(N/N=C/c2cc(Br)cc(Br)c2O)=N1
0.27 | 0.97 | 3.59 |  | O=C1CSC(N/N=C/c2cc(F)ccc2O)=N1
0.18 | 0.56 | 1.78 |  | O=C1CSC(N/N=C/c2cc(Cl)ccc2O)=N1
0.06 |  |  | 0.42 | O=C1CSC(N/N=C/c2cc(Br)ccc2O)=N1
